Measurements published in patent US20230293530A1, “AGENTS FOR SENSITIZING SOLID TUMORS TO TREATMENT” (Yeda Research and Development Co. Ltd., priority 2020, published 2023).

Columns and labels:
Conditions in all cases: 300 µM mizoribine, 24 h
4T1 breast cancer cells = assay: Nucleotide levels by LC-MS in 4T1 cells with or without mizoribine (or L-Name); format: cell-based, murine
Experimental: B) The purine/pyrimidine ratio is increased upon glucose deprivation in murine breast cancer cells. 4T1 cells were grown in the absence of glucose for 24h (baseline) and 48h and quantified by liquid chromatography-mass spectrometry (LC-MS). Nucleotide levels were measured in µg/ml and corrected for protein concentration. Purine/pyrimidine ratio was calculated by dividing (AMP+GMP) by (UMP+CMP) relative concentrations. C) ASS1 inhibition decreases the purine/pyrimidine ration under glucose deprivation. 4T1 cells were grown in the presence or absence of glucose for 48 h and analysed as in 1B. […] Cells were grown and treated as in 5B. […] 4T1 cells were grown either with or without 300 µM mizoribine for 24 h. Nucleotide levels were measured by LC-MS. […] Each experiment was conducted with biological and technical replicates and repeated at least three times. G) A549 cells were grown for 48 hr in control medium or supplemented with 1.2 µM Methotrexate (Holland-Moran). Nucleotide levels were measured as described below by LC-MS. Purine/pyrimidine ratio was calculated by dividing (AMP+GMP+ATP+GTP) concentration by (UMP+CMP+TMP+UTP+CTP+TTP) concentration before and after methotrexate. All error bars represent SER. *P<0.05, **P<0.01. Each experiment was conducted with biological and technical replicates and repeated at least three times.
(§1) A) Purine/pyrimidine ratio is increased upon nutrient deprivation in […] colon cancer cells. MC38 cells were grown in either regular medium or in medium without glucose for 24 h. Nucleotide levels were measured by LC-MS. Purine/pyrimidine ratio was calculated by dividing (AMP+GMP) AUC by (UMP+CMP) AUC. B) 4T1 cells with and without shASS1 were grown in glucose free medium either supplemented or not with 10 mM L-Name for 48 hrs. Nucleotide levels were measured by LC-MS. Purine/pyrimidine ratio was calculated by dividing the sum levels of (AMP+GMP) by the sum levels of (UMP+CMP+TMP). […] MC38 cells were grown either with or without 300 µM mizoribine for 24 h. Nucleotide levels were measured by LC-MS. […] 4T1 (left panel) and MC38 cells (right panel) were grown for 24 h with or without 300 µM mizoribine. Cell viability was measured by crystal violet staining. Each experiment was conducted with biological and technical replicates and repeated at least three times. All error bars represent SER. * P<0.05, ** denotes P<0.01, ***P<0.001.
LC-MS analysis: The LC-MS/MS instrument consisting of an Acquity I-class UPLC system (Waters) and Xevo TQ-S triple quadrupole mass spectrometer (Waters), equipped with an electrospray ion source, and operated in positive ion mode was used for analysis of nucleoside monophosphates. MassLynx and TargetLynx software (version 4.1, Waters) were applied for the acquisition and analysis of data. Chromatographic separation was done on a 100 mm × 2.1 mm internal diameter, 1.8-µm UPLC HSS T3 column equipped with 50 mm × 2.1 mm internal diameter, 1.8-µm UPLC HSS T3 pre-column (both Waters Acquity) with mobile phases A (10 mM ammonium acetate and 5 mM ammonium hydrocarbonate buffer, pH 7.65 adjusted with 10% acetic acid) and B (acetonitrile) at a flow rate of 0.3 mL min-1 and column temperature 25° C. A gradient was used as follows: for 0-3 min the column was held at 0.2% B, then 3-3.5 min a linear increase to 100% B, 3.5-4.0 min held at 100% B, 4.0-4.5 min back to 0.2% B and equilibration at 0.2% B for 2.5 min. […] Nucleotide concentration was calculated using a standard curve of the relevant nucleotide concentration in each sample. […]

MC38 cells = assay: Nucleotide levels by LC-MS in MC38 cells with or without mizoribine; format: cell-based, mouse
Experimental: A) Purine/pyrimidine ratio is increased upon nutrient deprivation in […] colon cancer cells. MC38 cells were grown in either regular medium or in medium without glucose for 24 h. Nucleotide levels were measured by LC-MS. Purine/pyrimidine ratio was calculated by dividing (AMP+GMP) AUC by (UMP+CMP) AUC. B) 4T1 cells with and without shASS1 were grown in glucose free medium either supplemented or not with 10 mM L-Name for 48 hrs. Nucleotide levels were measured by LC-MS. Purine/pyrimidine ratio was calculated by dividing the sum levels of (AMP+GMP) by the sum levels of (UMP+CMP+TMP). […] MC38 cells were grown either with or without 300 µM mizoribine for 24 h. Nucleotide levels were measured by LC-MS. […] Cell viability was measured by crystal violet staining. […]
LC-MS analysis: The LC-MS/MS instrument consisting of an Acquity I-class UPLC system (Waters) and Xevo TQ-S triple quadrupole mass spectrometer (Waters), equipped with an electrospray ion source, and operated in positive ion mode was used for analysis of nucleoside monophosphates. […] Nucleotide concentration was calculated using a standard curve of the relevant nucleotide concentration in each sample. Standard curves included increasing concentration of all measured nucleotides ranging from 0-10 ug/ml that were positioned at the beginning and at the end of each run. […]

4T1 cells = assay: Cell viability by crystal violet staining, 4T1; format: cell-based, murine
Experimental: as §1

[1] = corrected for protein concentration

## NC(=O)c1ncn([C@@H]2O[C@H](CO)[C@@H](O)[C@H]2O)c1O [Mizoribine, mizoribine]
4T1 breast cancer cells
  purine/pyrimidine ratio (AMP+GMP)/(UMP+CMP): decreased purine/pyrimidine ratio
4T1 breast cancer cells; [1]
  AMP level, Mizoribine treatment: 483.2 µg/ml/ pt
  CMP level, Mizoribine treatment: 7.3 µg/ml/ pt
  GMP level, Mizoribine treatment: 28.46 µg/ml/ pt
  UMP level, Mizoribine treatment: 38.39 µg/ml/ pt
MC38 cells
  purine/pyrimidine ratio (AMP+GMP) AUC/(UMP+CMP) AUC: decreased purine/pyrimidine ratio
4T1 cells
  cancer cell proliferation (cell viability, crystal violet): restricts ASS1-overexpressing cancer cell proliferation
